Data reported in patent publication US8481716B2 (Wacker Chemie AG, priority 2004, dated 2013).

What was measured:
Assay type in all cases: physicochemical
[1] = Temperature stability at 100° C.
[2] = Differential Scanning Calorimetry analysis for uncomplexed alpha-lipoic acid; details: DSC
Method: Cyclodextrin complexes (3-6 mg sample size) were analyzed using Differential Scanning Calorimeter (DSC). […] This peak, if present, was compared to a peak at this temperature of pure alpha-lipoic acid to calculate percentage of uncomplexed alpha-lipoic acid in the complex. […] The peak around 60° C. decreases with increasing degree of complexation.

[3] = Temperature stability at 40° C.
[4] = Temperature stability at 25° C.; details: for Content ALA: 25° C.
Method: Alpha lipic acid/cyclodextrin complexes were stored in a closed polypropylene container at 25° C.

[5] = closed polypropylene container, 0 days of storage, initial content set to 100%

O=C(O)CCCCC1CCSS1 (stereo not drawn) [Pure ALA, Alpha-lipoic acid]
Content ALA ([1]; 3 days of storage): 38% | Content ALA ([1]; 11 days of storage): 13% | Content ALA ([1]; 28 days of storage): 4% | Content ALA ([1]; 36 days of storage): 0% | Content ALA ([1]; closed glass containers, 0 days of storage, initial content set to 100%): 100% | Non Complexed ALA ([2]; melting peak around 60° C. compared to pure ALA): 100% | Complexed ALA ([2]; complexed ALA in product): 0.0% | Content ALA ([3]; 8 days of storage): 99% | Content ALA ([3]; 39 days of storage): 48*) % | Content ALA ([3]; 81 days of storage): 41*) % | Content ALA [3, 5]: 100 ^ % | stability at room temperature ([4]; 25° C. storage): stable at room temperature | Content ALA ([4]; 39 days of storage): 100% | Content ALA ([4]; 67 days of storage): 100% | Content ALA ([4]; 107 days of storage): 100% | Content ALA [4, 5]: 100%
